Test results from PMC10298530, “Synthesis and Anticancer Activity of A-Ring-Modified Derivatives of Dihydrobetulin” (International Journal of Molecular Sciences, 2023).
“And” between values parts separate entries of the source, which are not always exact repeats. Equal entries are not always repeated. Where two headings read alike, the source gives them in different places.

Legend:
Type in all cases: cell-based, human
HCT116 = assay: MTT cell viability assay, HCT116; settings: for IC50: Homo sapiens, HCT-116
Source text: Blokhin National Medical Research Center of Oncology (the Ministry of Health of the Russian Federation, Moscow).

HBL-100 cells = assay: Cell cycle analysis (DAPI, flow cytometry), HBL-100; settings: for Cell cycle of HBL-100, G0/G1 / Cell cycle of HBL-100, G2/M / Cell cycle of HBL-100, S-phase / Cell cycle of HBL-100, subG0/G1: dose = IC50
Method: (§1) The cells were trypsinized and rinsed with the growth medium. Then, the cells were harvested by centrifugation at 500× g for 3 min, and the supernatant was discarded. The cells were washed with PBS (PanEco, Moscow, Russia) twice and centrifuged under similar conditions. The cells were resuspended in 500 μL of PBS, put into centrifuge tubes and fixed by adding 4.5 mL of 70% ethanol dropwise (on ice). The samples were fixed at 4 °C. Overnight, the fixed cells were centrifugally collected (1000× g, 4 °C, 5 min) and washed again with PBS. The cells were finally resuspended in DAPI with 0.1% Triton X-100 in PBS solution (10 μg/mL, Sigma–Aldrich, St. Louis, MO, USA), and stained for 30 min at room temperature in darkness. For each sample, at least 50,000 cells were analyzed using the CytoFlex S flow cytometer (Beckman Coulter, Brea, CA, USA). Cell cycle populations were quantified from DNA histograms with the FlowJo software (ver. X 10.0.7r2, FlowJo Software, San Jose, CA, USA).

HBL-100/Dox cells [1] = assay: Cell cycle analysis (DAPI, flow cytometry), HBL-100/Dox; settings: for Cell cycle of HBL-100/Dox, G0/G1 / Cell cycle of HBL-100/Dox, G2/M / Cell cycle of HBL-100/Dox, subG0/G1 / Cell cycle of HBL-100/Dox, S-phase: dose = IC50
Method: as §1

HBL-100/Dox cells [2] = assay: Annexin V-FITC/PI assay, HBL-100/Dox; settings: 16 h
Method: Briefly, after exposing the cells to the tested and control compounds for 16 h, the cells were detached with accutase (HiMedia Laboratories, Maharashtra, India) and washed with cold PBS. Then, the cells were re-suspended in 100 μL of 1 × Binding Buffer at concentration 1 × 10^6 cells/mL and incubated with 5 μL Annexin V-FITC and 5 μL propidium iodide (PI) for 15 min at room temperature in darkness. After incubation, 400 μL of 1 × Binding Buffer was added to each tube. The samples were analyzed by flow cytometry (CytoFlex S, Beckman Coulter, Brea, CA, USA) within 1 h of staining, and the findings were analyzed using a trial version of the Kaluza software (Beckman Coulter, Brea, CA, USA).

[3] = test system: Active Caspase-3 in HBL-100 cells; assay: Flow cytometric analysis of active caspase-3, HBL-100; settings: 24 h
Method: The cells were detached with accutase (HiMedia Laboratories, Maharashtra, India) and then fixed with 70% ice cold ethanol followed by overnight incubation at 4 °C. The cells were washed twice with PBS, permeabilized using 0.1% Triton X-100 in PBS solution, and subsequently stained with 5 μL of the BD Horizon™ BV605 Rabbit Anti-Active Caspase-3 antibody (BD Biosciences, Franklin Lakes, NJ, USA). The cells were then washed, resuspended in PBS, and analyzed using a CytoFlex S flow cytometer (Beckman Coulter, Brea, CA, USA). Cell fluorescence was evaluated on a CytoFlex S flow cytometer (Beckman Coulter, Brea, CA, USA). The results were analyzed using FlowJo software (ver. X 10.0.7r2, FlowJo Software, San Jose, CA, USA) and represented as geometric mean fluorescence intensity (gMFI).

COC(=O)[C@]12CC[C@@H](C(C)C)[C@@H]1[C@H]1CC[C@@H]3[C@@](C)(CCC#N)[C@H](C(=O)C(Br)Br)CC[C@@]3(C)[C@]1(C)CC2 [compound 31, 2-Cyano-24,24-dibromo-4-oxo-3,4-seco-3,23-dinorlupan-28-oic acid methyl ester]
IC50 (HCT116; HCT116, MTT, 72 h of treatment, read-out: IC50 Values (Mean ± SD)): 3.9 ± 0.1 µM | IC50 (HCT116; Table S1, HCT116, read-out: IC50 (mean ± SD)): 3.86 ± 0.08 µM | Selectivity index (SI) (HCT116; ratio of IC50 values healthy (HEK293) / HCT116): 2.95 | Cell cycle of HBL-100, G0/G1 (HBL-100 cells; 12 h): 59.78±0.94% | Cell cycle of HBL-100, G2/M (HBL-100 cells; 12 h): 15.88±0.50% | Cell cycle of HBL-100, S-phase (HBL-100 cells; 12 h): 24.35±0.43% | Cell cycle of HBL-100, subG0/G1 (HBL-100 cells; 12 h): 1.44 ± 0.44% | Cell cycle of HBL-100, G0/G1 (HBL-100 cells; 13 h): 56.56±0.16% | Cell cycle of HBL-100, G2/M (HBL-100 cells; 13 h): 16.70±0.71% | Cell cycle of HBL-100, S-phase (HBL-100 cells; 13 h): 26.74±0.54% | Cell cycle of HBL-100, subG0/G1 (HBL-100 cells; 13 h): 1.74±0.05% | Cell cycle of HBL-100, G0/G1 (HBL-100 cells; 14 h): 56.69±0.01% | Cell cycle of HBL-100, G2/M (HBL-100 cells; 14 h): 16.96±0.16% | Cell cycle of HBL-100, S-phase (HBL-100 cells; 14 h): 26.35±0.16% | Cell cycle of HBL-100, subG0/G1 (HBL-100 cells; 14 h): 1.74±0.18% | Cell cycle of HBL-100, G0/G1 (HBL-100 cells; 15 h): 57.83±1.04% | Cell cycle of HBL-100, G2/M (HBL-100 cells; 15 h): 16.29±0.55% | Cell cycle of HBL-100, S-phase (HBL-100 cells; 15 h): 25.88±0.49% | Cell cycle of HBL-100, subG0/G1 (HBL-100 cells; 15 h): 2.38±0.42% | Cell cycle of HBL-100, G0/G1 (HBL-100 cells; 16 h): 56.91±0.07% | Cell cycle of HBL-100, G2/M (HBL-100 cells; 16 h): 18.83±0.14% | Cell cycle of HBL-100, S-phase (HBL-100 cells; 16 h): 24.26±0.08% | Cell cycle of HBL-100, subG0/G1 (HBL-100 cells; 16 h): 4.89±1.93% | Cell cycle of HBL-100, G0/G1 (HBL-100 cells; 17 h): 55.78±0.79% | Cell cycle of HBL-100, G2/M (HBL-100 cells; 17 h): 18.39±1.04% | Cell cycle of HBL-100, S-phase (HBL-100 cells; 17 h): 25.83±0.24% | Cell cycle of HBL-100, subG0/G1 (HBL-100 cells; 17 h): 3.50±0.42% | Cell cycle of HBL-100, G0/G1 (HBL-100 cells; 18 h): 56.81±0.03% | Cell cycle of HBL-100, G2/M (HBL-100 cells; 18 h): 15.38±0.01% | Cell cycle of HBL-100, S-phase (HBL-100 cells; 18 h): 27.81±0.04% | Cell cycle of HBL-100, subG0/G1 (HBL-100 cells; 18 h): 4.39±0.82% | Cell cycle of HBL-100, G0/G1 (HBL-100 cells; 24 h): 66.48 ± 1.33% | Cell cycle of HBL-100, G2/M (HBL-100 cells; 24 h): 4.43 ± 0.50% | Cell cycle of HBL-100, S-phase (HBL-100 cells; 24 h): 29.09±0.89% | Cell cycle of HBL-100, subG0/G1 (HBL-100 cells; 24 h): 8.22 ± 0.59% | effect on cell cycle progression (HBL-100 cells; HBL-100 (parental) cells, 12-24 h, IC50): blocked or slowed down the cell cycle progression through the G0/G1 phase | Cell cycle of HBL-100/Dox, G0/G1 (HBL-100/Dox cells [1]; 12 h): 50.93±0.43% | Cell cycle of HBL-100/Dox, G2/M (HBL-100/Dox cells [1]; 12 h): 18.38±0.34% | Cell cycle of HBL-100/Dox, subG0/G1 (HBL-100/Dox cells [1]; 12 h): 4.84 ± 1.48% | Cell cycle of HBL-100/Dox, S-phase (HBL-100/Dox cells [1]; 12 h, listed as MK): 30.69 ± 0.99% and 30.69±0.04% | Cell cycle of HBL-100/Dox, G0/G1 (HBL-100/Dox cells [1]; 13 h): 47.82±0.67% | Cell cycle of HBL-100/Dox, G2/M (HBL-100/Dox cells [1]; 13 h): 17.42±0.46% | Cell cycle of HBL-100/Dox, S-phase (HBL-100/Dox cells [1]; 13 h): 34.76±0.20% | Cell cycle of HBL-100/Dox, subG0/G1 (HBL-100/Dox cells [1]; 13 h): 4.89±0.48% | Cell cycle of HBL-100/Dox, G0/G1 (HBL-100/Dox cells [1]; 14 h): 51.68±1.34% | Cell cycle of HBL-100/Dox, G2/M (HBL-100/Dox cells [1]; 14 h): 14.54±0.25% | Cell cycle of HBL-100/Dox, S-phase (HBL-100/Dox cells [1]; 14 h): 33.78±1.08% | Cell cycle of HBL-100/Dox, subG0/G1 (HBL-100/Dox cells [1]; 14 h): 4.87±0.60% | Cell cycle of HBL-100/Dox, G0/G1 (HBL-100/Dox cells [1]; 15 h): 52.12±1.18% | Cell cycle of HBL-100/Dox, G2/M (HBL-100/Dox cells [1]; 15 h): 14.52±1.40% | Cell cycle of HBL-100/Dox, S-phase (HBL-100/Dox cells [1]; 15 h): 33.36±2.57% | Cell cycle of HBL-100/Dox, subG0/G1 (HBL-100/Dox cells [1]; 15 h): 5.06±0.09% | Cell cycle of HBL-100/Dox, G0/G1 (HBL-100/Dox cells [1]; 16 h): 51.84±0.88% | Cell cycle of HBL-100/Dox, G2/M (HBL-100/Dox cells [1]; 16 h): 22.22±1.70% | Cell cycle of HBL-100/Dox, S-phase (HBL-100/Dox cells [1]; 16 h): 25.94±2.58% | Cell cycle of HBL-100/Dox, subG0/G1 (HBL-100/Dox cells [1]; 16 h): 6.55±0.11% | Cell cycle of HBL-100/Dox, G0/G1 (HBL-100/Dox cells [1]; 17 h): 52.16 ± 1.94% | Cell cycle of HBL-100/Dox, G2/M (HBL-100/Dox cells [1]; 17 h): 19.82±0.60% | Cell cycle of HBL-100/Dox, S-phase (HBL-100/Dox cells [1]; 17 h): 28.02±1.34% | Cell cycle of HBL-100/Dox, subG0/G1 (HBL-100/Dox cells [1]; 17 h): 9.08±0.39% | Cell cycle of HBL-100/Dox, G0/G1 (HBL-100/Dox cells [1]; 18 h): 57.26±1.18% | Cell cycle of HBL-100/Dox, G2/M (HBL-100/Dox cells [1]; 18 h): 25.55±1.12% | Cell cycle of HBL-100/Dox, S-phase (HBL-100/Dox cells [1]; 18 h): 17.19±2.31% | Cell cycle of HBL-100/Dox, subG0/G1 (HBL-100/Dox cells [1]; 18 h): 10.42±0.98% | Cell cycle of HBL-100/Dox, G0/G1 (HBL-100/Dox cells [1]; 24 h): 64.14 ± 0.55% | Cell cycle of HBL-100/Dox, S-phase (HBL-100/Dox cells [1]; 24 h): 8.99 ± 0.42% | Cell cycle of HBL-100/Dox, G2/M (HBL-100/Dox cells [1]; 24 h, listed as MK): 26.87 ± 1.13% and 26.87±0.13% | Cell cycle of HBL-100/Dox, subG0/G1 (HBL-100/Dox cells [1]; 24 h, listed as MK): 13.47 ± 2.44% and 13.47±0.18% | effect on cell cycle progression (HBL-100/Dox cells [1]; HBL-100/Dox (resistant) cells, 12-24 h, IC50): blocked or slowed down the cell cycle progression through the G0/G1 phase | Dead cells (HBL-100/Dox cells [2]; dose 2xIC50): 4.59±0.45% | Viable cells (HBL-100/Dox cells [2]; dose 2xIC50): 78.69 ± 1.29% | Early apoptotic cells (HBL-100/Dox cells [2]; dose 2xIC50, listed as MK): 5.50±0.44% | Late apoptotic cells (HBL-100/Dox cells [2]; dose 2xIC50, listed as MK): 10.94 ± 0.81% and 10.94±0.82% | Dead cells (HBL-100/Dox cells [2]; dose IC50): 2.52±0.08% | Viable cells (HBL-100/Dox cells [2]; dose IC50): 87.82 ± 0.44% | Early apoptotic cells (HBL-100/Dox cells [2]; dose IC50, listed as MK): 5.04 ± 0.51% and 5.04±0.52% | Late apoptotic cells (HBL-100/Dox cells [2]; dose IC50, listed as MK): 4.74 ± 0.44% and 4.74±0.04% | gMIF, Active Caspase-3 ([3]; dose 2×IC50): 11048±278 | gMIF, Active Caspase-3 ([3]; dose IC50): 6755±301
